Assay results reported in publication PMC12655351, “Synthesis and Anticancer Activity Evaluation of New 5-((5-Nitrofuran-2-yl)allylidene)-2-thioxo-4-thiazolidinones” (Pharmaceuticals, 2025).

What was measured:
A498 [1] = conditions: A498, 48 h
SN12C [2] = experiment: cells; conditions: Homo sapiens, 48 h
SK-OV-3 = experiment: cells; conditions: Homo sapiens, SK-OV-3, 48 h
SR [3] = conditions: 48 h
MOLT-4 = conditions: MOLT-4, 48 h
CAKI-1 = conditions: CAKI-1, 48 h
Colon cancer = experiment: NCI-60 SRB screen, subpanel
Melanoma [4] = experiment: cells; conditions: Homo sapiens
UACC-257 = conditions: UACC-257, 48 h
Leukemia = experiment: cells; conditions: Homo sapiens
SN12C [5] = conditions: SN12C, 48 h
OVCAR-3 = experiment: cells; conditions: Homo sapiens, OVCAR-3, 48 h
NCI-H460 = experiment: NCI-60 SRB screen; conditions: NCI-H460, 48 h
CNS cancer [6] = experiment: cells; conditions: Homo sapiens
SNB-75 = experiment: NCI-60 SRB screen; conditions: SNB-75, 48 h
NCI-H23 = conditions: NCI-H23, 48 h
Breast cancer = experiment: cells; conditions: Homo sapiens
CNS cancer [7] = conditions: CNS cancer subpanel
SF-295 = experiment: NCI-60 SRB screen; conditions: SF-295, 48 h
786-0 = conditions: 786-0, 48 h
OVCAR-4 = conditions: OVCAR-4, 48 h
SK-MEL-28 = conditions: SK-MEL-28, 48 h
UO-31 = experiment: cells; conditions: Homo sapiens, UO-31, 48 h
PC-3 = experiment: cells; conditions: Homo sapiens, PC-3, 48 h
EKVX = experiment: NCI-60 SRB screen; conditions: 48 h
MDA-MB-468 = experiment: NCI-60 SRB screen; conditions: MDA-MB-468, 48 h
Melanoma [8] = conditions: Melanoma subpanel
HCT-15 = experiment: NCI-60 SRB screen; conditions: HCT-15, 48 h
A498 [9] = experiment: cells; conditions: Homo sapiens, A498, 48 h
SR [10] = experiment: cells; conditions: Homo sapiens, 48 h
HCC-2998 = conditions: HCC-2998, 48 h
NCI/ADR-RES = conditions: 48 h

CCCCC(C(=O)O)N1C(=O)/C(=C/C=C/c2ccc([N+](=O)[O-])o2)SC1=S (stereo not drawn) [6b, 2-((Z)-5-((E)-3-(5-nitrofuran-2-yl)allylidene)-4-oxo-2-thioxothiazolidin-3-yl)hexanoic acid]
TGI (A498 [1]): 8.28 µM | GI50 (SN12C [2]): 1.75 µM | CC50 (SN12C [2]; read-out: LC50, SN12C, 48 h): 9.18 µM | GI50 (SK-OV-3): 6.27 µM | CC50 (SK-OV-3; read-out: LC50, SK-OV-3, 48 h): 46.7 µM | TGI (SR [3]): 8.66 µM | TGI (MOLT-4): 13.5 µM | TGI (CAKI-1): 3.29 µM | MG_MID TGI (Colon cancer; Colon cancer subpanel): 3.57 µM | GI50 (Colon cancer; Homo sapiens, read-out: MG_MID GI50): 1.81 µM | CC50 (Colon cancer; Homo sapiens, read-out: MG_MID LC50): 6.66 µM | GI50 (Melanoma [4]; read-out: MG_MID GI50): 1.78 µM | CC50 (Melanoma [4]; read-out: MG_MID LC50): 7.07 µM | TGI (UACC-257): 4.31 µM | GI50 (Leukemia; read-out: MG_MID GI50): 2.57 µM | CC50 (Leukemia; read-out: MG_MID LC50): 98.4 µM | TGI (SN12C [5]): 4.00 µM | GI50 (OVCAR-3): 2.23 µM | GI50 (NCI-H460; Homo sapiens): 1.84 µM | CC50 (NCI-H460; Homo sapiens, read-out: LC50): 69.6 µM | TGI (NCI-H460): 3.61 µM | GI50 (CNS cancer [6]; read-out: MG_MID GI50): 2.01 µM | CC50 (CNS cancer [6]; read-out: MG_MID LC50): 12 µM | GI50 (SNB-75; Homo sapiens): 1.77 µM | CC50 (SNB-75; Homo sapiens, read-out: LC50, SNB-75, 48 h): 8.06 µM | TGI (SNB-75): 3.77 µM | TGI (NCI-H23): 3.51 µM | GI50 (Breast cancer; read-out: MG_MID GI50): 2.03 µM | CC50 (Breast cancer; read-out: MG_MID LC50): 26.7 µM | MG_MID TGI (CNS cancer [7]): 4.58 µM | GI50 (SF-295; Homo sapiens): 2.23 µM | CC50 (SF-295; Homo sapiens, read-out: LC50, SF-295, 48 h): 13.5 µM | TGI (SF-295): 4.99 µM | TGI (786-0): 9.30 µM | TGI (OVCAR-4): 19.0 µM | TGI (SK-MEL-28): 3.73 µM | GI50 (UO-31): 1.67 µM | CC50 (UO-31; read-out: LC50, UO-31, 48 h): 6.5 µM | GI50 (PC-3): 3.05 µM | TGI (EKVX): 5.74 µM | GI50 (EKVX; Homo sapiens): 2.26 µM | CC50 (EKVX; Homo sapiens, read-out: LC50, EKVX, 48 h): 19.7 µM | GI50 (MDA-MB-468; Homo sapiens): 1.63 µM | CC50 (MDA-MB-468; Homo sapiens, read-out: LC50, MDA-MB-468, 48 h): 6.09 µM | TGI (MDA-MB-468): 3.15 µM | MG_MID TGI (Melanoma [8]): 3.59 µM | TGI (HCT-15): 3.58 µM | GI50 (HCT-15; Homo sapiens): 1.71 µM | CC50 (HCT-15; Homo sapiens, read-out: LC50, HCT-15, 48 h): 7.47 µM | GI50 (A498 [9]): 3.03 µM | GI50 (SR [10]): 1.98 µM | CC50 (SR [10]; read-out: LC50): > 100 µM | TGI (HCC-2998): 3.34 µM | TGI (NCI/ADR-RES): 5.61 µM
